Counter-ions that a name gives are not always drawn.
Experiments:
5-HT1D = assay: Affinity for 5-HT1D receptors (3H-5-HT binding, sheep caudate nuclei membranes); settings: Ratio of the IC50 values for the 5HT1A and 5HT1D receptors
Procedure: This study is carried out according to the technique described by Herrick-Davis and Titeler (J. Neurochem. 50, 1624-1631, 1988).
Preparation of the membranes:
Sheep brains are removed at the local abattoir and transported in ice. The caudate nuclei are removed, weighed and homogenized with a Polytron for 20 sec. (speed 6-7) in 20 volumes of Tris-HCl 50 mM, pH 7.7. The homogenate is centrifuged for 10 min at 48,000 g with an L5 50E centrifuge (Beckman).
The pellet, taken up in 20 volumes of Tris-HCl 50 mM, pH 7.7, is placed in a water bath at 37° C. for 10 min and then recentrifuged for 10 min at 48,000 g. The pellet then obtained is immediately frozen in fractions containing 0.5 g of tissue.
The pellet is defrosted and homogenized with a Dounce in 80 volumes of Tris-HCl, 50 mM pH 7.7 containing 4 mM CaCl2, 10μM of pargyline and 0.1% of ascorbic acid.
Binding is carried out at 25° C. by incubating for 30 min:
0.1 ml of buffer or 10 μM, as final concentration, of sumatriptan, in order to obtain the non-specific binding, or the product which forms part of this invention at various concentrations (between 10^-10 and 10^-6 M).
0.8 ml of membrane suspension
0.1 ml of ^3 H-5-HT (15 to 30 Ci/mM, New England Nuclear France)
The incubation is brought to an end by rapid filtration through GF/B filters and rinsing with 3 times 3 ml of ice-cold buffer, using a harvester manufactured by Brandel which makes it possible to filter 48 samples. The filters are introduced into vials containing 4 ml of emulsifier-safe liquid scintillant (Packard) and the radioactivity measured with a Tri-carb 4640 counter (Packard).
The IC50 (concentration which inhibits the specific affinity by 50%) is determined graphically.

α1-Adrenergic receptor = α1-Adrenergic receptor binding (Leslie Morrow and Creese); settings: rat brain (title of cited method)
Procedure: (§1) The IC50 values of the various products which form part of this invention for the other receptors were measured according to the techniques described in the following references:
Leslie Morrow A. and Creese I. Characterization of α1-adrenergic receptor subtypes in rat brain: a reevaluation of ^3 H-WB4101 and ^3 H prazosin binding. Mol. Pharmacol. 29, 321-330, 1986.

5-HT1C = target: T1, 5-HT1C (Sus scrofa, UniProt K7GSR7); assay: 5-HT1C receptor binding (Pazos et al.); set-up: species or system porcine
T1 construct: serotonergic ligands to the porcine choroid plexus; from tissue; host or cells: porcine choroid plexus
T1 sequence (K7GSR7 1-457): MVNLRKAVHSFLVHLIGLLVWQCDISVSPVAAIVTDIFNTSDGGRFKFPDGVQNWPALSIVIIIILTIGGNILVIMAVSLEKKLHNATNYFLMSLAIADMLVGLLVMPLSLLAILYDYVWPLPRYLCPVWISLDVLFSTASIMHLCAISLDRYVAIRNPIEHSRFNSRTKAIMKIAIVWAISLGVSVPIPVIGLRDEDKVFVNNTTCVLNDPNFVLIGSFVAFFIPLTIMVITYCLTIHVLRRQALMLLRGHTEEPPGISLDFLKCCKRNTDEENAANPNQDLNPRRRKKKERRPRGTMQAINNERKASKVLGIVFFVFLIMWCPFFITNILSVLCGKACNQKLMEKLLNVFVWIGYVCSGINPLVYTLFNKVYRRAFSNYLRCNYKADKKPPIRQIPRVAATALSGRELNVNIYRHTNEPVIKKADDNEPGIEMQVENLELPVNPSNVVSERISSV
Procedure: as §1
Pazos A., Hoyer D. and Palacios J. M. The binding sites of serotonergic ligands to the porcine choroid plexus: characterization of a new type of serotonin recognition site. Eur. J. Pharmacol., 106, 539-546, 1985.

5-HT1A = target: T2, 5-HT1A (Rattus norvegicus, UniProt P19327); assay: 5-HT1A receptor binding (Peroutka)
T2 construct: from tissue; host or cells: rat frontal cortex
T2 sequence (P19327 1-422): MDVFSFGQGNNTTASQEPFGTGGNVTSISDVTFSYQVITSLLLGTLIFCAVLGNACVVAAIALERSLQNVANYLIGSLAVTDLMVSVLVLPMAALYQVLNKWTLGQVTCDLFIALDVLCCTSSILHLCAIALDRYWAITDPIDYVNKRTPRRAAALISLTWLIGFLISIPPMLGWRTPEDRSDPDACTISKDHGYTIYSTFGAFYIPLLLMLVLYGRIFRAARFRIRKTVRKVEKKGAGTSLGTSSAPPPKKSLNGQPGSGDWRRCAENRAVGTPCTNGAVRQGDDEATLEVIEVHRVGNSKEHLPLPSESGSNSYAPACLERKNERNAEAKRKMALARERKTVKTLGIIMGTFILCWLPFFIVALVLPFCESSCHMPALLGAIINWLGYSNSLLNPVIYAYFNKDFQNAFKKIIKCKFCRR
Procedure: as §1
(§2) Peroutka S. J. Pharmacological differentiation and characterization of 5-HT1A, 5-HT1B and 5-HT1C binding sites in rat frontal cortex. J. Neurochem., 45, 529-540, 1986.

D2-Dopaminergic receptor = target: T3, D2-Dopaminergic receptor (Canis lupus familiaris, UniProt Q9GJU1); assay: D2-Dopaminergic receptor binding (Nisnik et al.); settings: 3H-YM-09159-2 (title of cited method); read-out: IC50 D2
T3 construct: from tissue
T3 sequence (Q9GJU1 whole entry): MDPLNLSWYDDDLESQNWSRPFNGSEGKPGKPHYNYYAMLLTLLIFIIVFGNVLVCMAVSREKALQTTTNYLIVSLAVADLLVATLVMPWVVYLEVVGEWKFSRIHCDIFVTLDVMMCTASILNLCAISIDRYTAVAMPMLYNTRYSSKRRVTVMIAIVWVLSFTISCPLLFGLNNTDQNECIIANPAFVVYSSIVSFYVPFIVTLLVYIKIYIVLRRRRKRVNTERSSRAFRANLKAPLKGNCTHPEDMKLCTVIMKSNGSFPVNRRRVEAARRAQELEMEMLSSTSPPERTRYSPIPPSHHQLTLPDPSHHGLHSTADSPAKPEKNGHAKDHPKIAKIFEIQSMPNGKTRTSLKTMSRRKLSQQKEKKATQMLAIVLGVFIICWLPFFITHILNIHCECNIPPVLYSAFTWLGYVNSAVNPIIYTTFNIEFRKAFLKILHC
Procedure: as §1
Nisnik H. B., Grigoriadis D. E., Pri-Bar I., Buckman O. and Seeman P. Dopamine D2 receptors selectively labeled by a benzamide neuroleptic: ^3 H-YM-09159-2 Naunyn-Schmiedeberg's Arch. Pharmacol. 329, 333-343, 1985.

5-HT2 = target: T4, 5-HT2 (Rattus norvegicus, UniProt P14842); assay: 5-HT2 receptor binding (Leysen et al.); settings: 3H-ketanserine (title of cited method)
T4 construct: from tissue
T4 sequence (P14842 whole entry): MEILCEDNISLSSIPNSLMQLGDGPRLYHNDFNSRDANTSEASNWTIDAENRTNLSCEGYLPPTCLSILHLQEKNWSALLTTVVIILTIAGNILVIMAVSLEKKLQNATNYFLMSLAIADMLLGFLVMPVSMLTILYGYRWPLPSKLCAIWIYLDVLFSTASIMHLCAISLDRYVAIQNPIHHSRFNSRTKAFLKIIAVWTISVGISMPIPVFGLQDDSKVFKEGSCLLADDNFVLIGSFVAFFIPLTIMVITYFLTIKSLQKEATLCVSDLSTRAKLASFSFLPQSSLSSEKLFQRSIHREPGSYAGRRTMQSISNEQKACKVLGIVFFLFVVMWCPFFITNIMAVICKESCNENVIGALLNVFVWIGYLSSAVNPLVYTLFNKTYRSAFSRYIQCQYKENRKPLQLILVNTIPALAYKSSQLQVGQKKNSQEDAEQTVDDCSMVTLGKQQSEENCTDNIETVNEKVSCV
Procedure: as §1
Leysen J. E., Niemegeers C. J. E., Van Nueten J. M. and Laduron P.M. ^3 H-ketanserine (R 41468), a selective ^3 H ligand for serotonin2 receptor binding sites. Mol. Pharmacol., 21, 301-330, 1982.

5-HT1B = target: T5, 5-HT1B (Rattus norvegicus, UniProt P28564); assay: 5-HT1B receptor binding (Peroutka)
T5 construct: from tissue; host or cells: rat frontal cortex
T5 sequence (P28564 whole entry): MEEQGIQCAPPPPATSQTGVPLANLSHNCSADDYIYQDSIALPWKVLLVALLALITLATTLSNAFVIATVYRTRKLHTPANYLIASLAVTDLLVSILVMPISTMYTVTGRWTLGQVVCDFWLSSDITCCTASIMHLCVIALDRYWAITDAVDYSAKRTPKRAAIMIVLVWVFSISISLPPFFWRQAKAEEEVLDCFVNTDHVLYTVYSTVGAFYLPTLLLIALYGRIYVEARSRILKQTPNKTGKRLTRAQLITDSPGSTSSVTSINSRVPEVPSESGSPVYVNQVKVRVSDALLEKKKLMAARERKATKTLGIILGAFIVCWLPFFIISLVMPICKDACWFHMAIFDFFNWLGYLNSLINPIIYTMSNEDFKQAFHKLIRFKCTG
Procedure: as §1, §2

α2-Adrenergic receptor = target: T6, α2-Adrenergic receptor (Rattus norvegicus, UniProt P22909); assay: α2-Adrenergic receptor binding (Mallard et al.); settings: rat brain (title of cited method); read-out: IC50 α2
T6 construct: in the rat brain; from tissue; host or cells: rat brain
T6 sequence (P22909 1-465): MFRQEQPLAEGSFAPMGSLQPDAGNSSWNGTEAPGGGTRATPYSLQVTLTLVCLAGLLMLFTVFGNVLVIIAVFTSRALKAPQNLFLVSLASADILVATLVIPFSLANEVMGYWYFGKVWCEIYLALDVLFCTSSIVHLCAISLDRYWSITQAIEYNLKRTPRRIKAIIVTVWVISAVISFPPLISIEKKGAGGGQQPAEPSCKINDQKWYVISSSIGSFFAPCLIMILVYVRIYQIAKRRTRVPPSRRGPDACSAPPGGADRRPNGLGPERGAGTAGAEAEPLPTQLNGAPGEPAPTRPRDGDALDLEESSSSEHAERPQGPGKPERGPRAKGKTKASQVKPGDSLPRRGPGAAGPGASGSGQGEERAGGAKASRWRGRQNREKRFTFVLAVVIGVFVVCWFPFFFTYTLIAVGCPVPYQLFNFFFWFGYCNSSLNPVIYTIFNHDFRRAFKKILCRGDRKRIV
Procedure: as §1
Mallard N. J., Tyacke R., Hudson A. L. and Nutt D. S. Comparative binding studies of ^3 -idazoxan and ^3 -RX821002 in the rat brain. Brit. J. Pharmacol. 102, 221P, 1991.

`Cc1ccccc1N1CCN(C(=O)COc2ccc3[nH]cc(CCN)c3c2)CC1` [Example 1, 4-o-Tolyl-1-.(tryptamine-5-O-carboxymethyl)-piperazide hydrochloride] was tested, and the “Ratio 1A/1D” value (5-HT1D) was 11.2, the IC50 (α1-Adrenergic receptor) was > 1000 nM and the IC50 (5-HT1C) was 3000 nM. The IC50 (5-HT1A) was 23.5 nM, the IC50 (D2-Dopaminergic receptor) was > 1000 nM and the IC50 (5-HT2) was > 1000 nM. For the same compound, the IC50 (5-HT1B) was 0.6 nM and the IC50 (α2-Adrenergic receptor) was > 1000 nM.
